Experimental data: patent US9453253B2, “Methods of using isotopically labelled isoniazid for the diagnosis of mycobacterial infections” (priority 2012, dated 2016)

Columns and labels:
[1] = test system: Mycobacterium tuberculosis H37Rv; assay type: cell-based; conditions: M. tuberculosis H37Rv, 1 mg/mL, 1 hour, head gas, control subtracted
M. bovis BCG = assay type: cell-based

`[15NH2][15NH]C(=O)c1ccncc1` [^15N2-hydrazyl-INH] was tested, and the “30/28 mass signal in nitrogen gas, dependency on CFU” value [1] was “proportional to CFU/mL”, the “30/28 mass signal in nitrogen gas, dependency on CFU” value (M. bovis BCG) was “proportional to CFU/mL” and the “30/28 mass signal in nitrogen gas, dose dependence” value (M. bovis BCG) was “dependent upon dose”. For the same compound, the “30/28 mass signal in nitrogen gas, time dependence” value (M. bovis BCG) was “increase in the signal over the course of an hour, which then begins to decrease by 4 hours”.
